Source: paper PMC4535766, “Antiprotozoal Activity Profiling of Approved Drugs: A Starting Point toward Drug Repositioning” (PLoS ONE, 2015)

How the values were obtained:
[1] = test system: T. b. rhodesiense strain STIB 900, trypomastigotes; assay: in vitro
Description: (§1) Drug stock solutions (10mg/ml) were in DMSO (100%). […] Selectivity index (SI) was calculated as IC50 L6 cells/IC50 parasite.

L6 cells = assay: Cytotoxicity on L6 cells; conditions: read-out: IC50 Cytotox. L6; L6 cells; means of two independent assays
Description: as §1

[2] = test system: T. cruzi, strain Tulahuen C4, intracellular amastigotes; assay: microbe, parasite or virus in culture; conditions: read-out: IC50 T. cruzi; strain Tulahuen C4, intracellular amastigotes; means of two independent assays
Description: as §1

[3] = test system: axenic amastigotes of L. donovani, strain MHOM-ET-67/L82; assay: In vitro activity against L. donovani axenic amastigotes, serial drug dilution assay; format: cell-based, Leishmania donovani; conditions: axenic amastigotes, strain MHOM-ET-67/L82; means of two independent assays; read-out: IC50 L. don. axen.
Description: as §1

[4] = test system: intracellular amastigotes of L. donovani strain MHOM-ET-67/L82; assay: Activity against Leishmania donovani intracellular amastigotes in mouse peritoneal macrophages
Summary of the method: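 Axenic amastigotes grown at pH 5.4 infected mouse peritoneal macrophages for 4 h before free parasites were washed off. Next day, seven 3-fold drug dilutions (30–0.04 μg/ml) were added for 96 h. Giemsa-stained infected macrophages were counted, burden reduction was taken vs untreated controls, and IC50 came from linear regression.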

P. falciparum strain K1 = assay: In vitro activity against P. falciparum, serial drug dilution assay; conditions: read-out: IC50 P. falc. K1; strain K1; means of two independent assays
Description: as §1

[5] = test system: macrophages infected with L. donovani; assay: Cytotoxicity on macrophages infected with L. donovani; format: cell-based, mouse; conditions: macrophages infected with L. donovani; read-out: IC50 Cytotox. mac.inf.
[6] = test system: T.b.rhodesiense (STIB900); assay: T.b.rhodesiense (STIB900) acute mouse model; format: in vivo; conditions: daily oral administration of up to 25 mg/kg over a 4 day period, acutely infected mouse model
Description: The STIB900 acute mouse model mimics the first stage of the disease. Four female NMRI mice were used per experimental group. Each mouse was inoculated i.p. with 10^4 bloodstream forms of STIB900, respectively. Heparinized blood from a donor mouse with approximately 5x10^6 /ml parasitaemia was suspended in PSG to obtain a trypanosome suspension of […]. Each mouse was injected with 0.25 ml. Compounds were formulated in 100% DMSO, diluted 10-fold in distilled water. Compound treatment was initiated 3 days post-infection on four consecutive days for all administration routes (i.p., p.o.) in a volume of 0.1 ml/10 g. Three mice served as infected-untreated controls. […] Parasitaemia was monitored using smears of tail-snip blood twice a week after treatment for two weeks followed by once a week until 60 days post-infection. Mice are considered cured when there is no parasitaemia relapse detected in the tail blood over the 60-day observation period. Mean relapse days were determined as day of relapse post-infection of mice.

[7] = set-up: method as in PMID 6813497; conditions: cited from earlier work
Entamoeba histolytica = conditions: cited from earlier work
T. brucei = test system: T. brucei; set-up: method as in PMID 11302796; conditions: cited from earlier work
[8] = rats, oral single dose 6.7 mg /kg

SMILES: CC(=O)OC[C@H]1O[C@@H]([S-])[C@H](OC(C)=O)[C@@H](OC(C)=O)[C@@H]1OC(C)=O.CCP(CC)CC.[Au+] [Auranofin]
- Selectivity index: IC50 Cytotoxicity L6/ IC50 T. b. rhodesiense [1]: 479
- IC50 ([1]; read-out: IC50 T. b. rhod., strain STIB 900, trypomastigotes, means of two independent assays): 0.01 µM
- IC50 (L6 cells): 4.79 µM
- IC50 [2]: 2.27 µM
- IC50 [3]: 0.11 µM
- Activity against intracellular amastigotes at a fixed concentration [4]: did not exhibit activity
- IC50 ([4]; read-out: IC50 L. don. intracell, intracellular amastigotes in mouse peritoneal macrophages, strain MHOM-ET-67/L82, 96 h): > 1.47 µM
- IC50 (P. falciparum strain K1): 1.67 µM
- IC50 [5]: 4.42 µM
- In vivo efficacy (reduction of parasitemia or increased survival time) [6]: no in vivo efficacy was observed
- Bioavailability [7]: 17–23%
- Terminal half-life based on blood levels [7, 8]: 29 h
- Terminal half-life based on serum levels [7, 8]: 43 h
- Times better activity against Entamoeba histolytica than the standard drug metronidazole (Entamoeba histolytica): 10 times

SMILES: NC1CCC(C23CC4CC(CC(C4)C2)C3)CC1 (stereo not drawn) [1-adamantyl-4-amino-cyclohexane]
- Times more effective than rimantadine (T. brucei): 20 to 25 times
